Molecules are shown by their SMILES.

The target in the first assay is T1, hNav1.7 (Homo sapiens, UniProt Q15858).
T1 construct: expressed in transfected cells
T1 sequence (Q15858 whole entry): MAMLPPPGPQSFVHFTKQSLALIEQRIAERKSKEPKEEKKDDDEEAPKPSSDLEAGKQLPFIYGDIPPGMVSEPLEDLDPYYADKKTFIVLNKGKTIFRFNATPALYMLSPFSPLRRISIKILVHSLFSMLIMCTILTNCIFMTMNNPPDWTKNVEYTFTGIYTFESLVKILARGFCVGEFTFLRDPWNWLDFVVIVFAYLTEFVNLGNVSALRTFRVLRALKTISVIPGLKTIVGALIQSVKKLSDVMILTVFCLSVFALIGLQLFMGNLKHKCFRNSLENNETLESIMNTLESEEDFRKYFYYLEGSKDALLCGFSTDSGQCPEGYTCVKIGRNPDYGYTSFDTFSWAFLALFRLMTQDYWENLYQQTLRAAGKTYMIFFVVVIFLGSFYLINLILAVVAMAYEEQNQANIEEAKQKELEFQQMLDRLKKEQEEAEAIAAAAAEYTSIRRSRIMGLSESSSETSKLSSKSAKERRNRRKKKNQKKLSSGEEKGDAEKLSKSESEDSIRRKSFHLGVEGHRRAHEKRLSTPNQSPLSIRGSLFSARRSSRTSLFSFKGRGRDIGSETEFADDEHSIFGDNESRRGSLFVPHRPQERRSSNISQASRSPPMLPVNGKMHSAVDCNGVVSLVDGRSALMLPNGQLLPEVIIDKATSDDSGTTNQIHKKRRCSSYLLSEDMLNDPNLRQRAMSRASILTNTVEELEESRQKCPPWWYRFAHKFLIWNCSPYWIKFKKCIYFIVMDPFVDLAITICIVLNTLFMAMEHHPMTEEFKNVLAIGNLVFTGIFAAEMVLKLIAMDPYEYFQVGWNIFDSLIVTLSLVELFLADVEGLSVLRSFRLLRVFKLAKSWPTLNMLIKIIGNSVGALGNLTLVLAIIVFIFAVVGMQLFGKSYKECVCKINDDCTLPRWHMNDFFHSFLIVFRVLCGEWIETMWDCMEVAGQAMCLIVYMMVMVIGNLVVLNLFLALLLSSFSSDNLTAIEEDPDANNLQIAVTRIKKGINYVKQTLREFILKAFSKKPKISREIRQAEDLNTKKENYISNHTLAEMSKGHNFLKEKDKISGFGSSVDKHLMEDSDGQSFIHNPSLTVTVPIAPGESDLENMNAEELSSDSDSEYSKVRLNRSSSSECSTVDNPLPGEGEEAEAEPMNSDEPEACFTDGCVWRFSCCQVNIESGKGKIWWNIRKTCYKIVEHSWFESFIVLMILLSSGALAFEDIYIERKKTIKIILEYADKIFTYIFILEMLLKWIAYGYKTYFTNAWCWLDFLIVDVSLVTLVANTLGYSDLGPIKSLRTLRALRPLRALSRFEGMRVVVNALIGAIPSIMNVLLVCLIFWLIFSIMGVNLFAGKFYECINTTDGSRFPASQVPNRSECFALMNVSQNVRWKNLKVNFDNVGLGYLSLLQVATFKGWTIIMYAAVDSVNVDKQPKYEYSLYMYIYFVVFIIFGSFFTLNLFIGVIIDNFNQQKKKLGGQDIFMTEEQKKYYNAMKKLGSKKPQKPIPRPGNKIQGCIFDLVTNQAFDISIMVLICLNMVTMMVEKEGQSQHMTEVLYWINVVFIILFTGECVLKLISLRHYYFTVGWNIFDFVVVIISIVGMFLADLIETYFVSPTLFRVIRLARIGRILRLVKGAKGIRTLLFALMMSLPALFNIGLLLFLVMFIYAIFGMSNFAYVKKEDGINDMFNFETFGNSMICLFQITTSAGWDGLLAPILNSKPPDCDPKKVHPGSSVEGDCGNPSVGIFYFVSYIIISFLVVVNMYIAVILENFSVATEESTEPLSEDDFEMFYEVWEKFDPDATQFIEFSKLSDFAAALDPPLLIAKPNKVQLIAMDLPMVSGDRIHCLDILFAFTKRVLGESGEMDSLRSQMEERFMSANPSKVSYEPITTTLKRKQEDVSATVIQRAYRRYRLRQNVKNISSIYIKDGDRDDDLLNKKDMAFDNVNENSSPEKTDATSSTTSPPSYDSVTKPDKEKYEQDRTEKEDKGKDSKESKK
Description: hNav1.7 inactivated state (SIS) automated patch clamp electrophysiology. In kind it is cell-based. Conditions: Assay Conc. 10 uM; inactivated state protocol, HEK cells, whole-cell Patchliner. The protocol: hNav1.7, hNav1.2, hNav1.3, hNav1.4, hNav1.5, hNav1.6 were stably expressed in human embryonic kidney cells and kept under constant antibiotic selection. For in vitro assays, cells were maintained in appropriate growth medium at 37° C. and 5% CO2 in a humidified incubator.
Nav1.x expressing cells plated in T-25 flasks for 2-3 days prior to use and grown to 70-85% confluence were briefly trypsinized to obtain a single cell suspension of ˜2-3×10^6 cells/ml. All electrophysiological recordings were performed at ambient temperature (21-23° C.) using automated patch clamp (Patchliner, Nanion Technologies GmbH) in the whole-cell configuration using the following solutions: Internal solution contained (in mM): CsCl (50), NaCl (10), CsF (60), EGTA (20), HEPES (10), pH 7.2 KOH, 285 mOsmol·Kg^−1. External (bath) solution contained (in mM): NaCl (140), KCl (4), MgCl2 (1), CaCl2 (2) D-Glucose monohydrate (5), HEPES (10), pH 7.4 NaOH, 298 mOsmol·kg^−1.
For each Nav1.x channel, a steady state inactivation curve was obtained in order to calculate the voltage resulting in 50% channel inactivation (V0.5inact). A 2 pulse protocol was then employed in which cells held at a voltage corresponding to 20 mV more negative to V0.5 inact were depolarised to −10 mV for 20 ms before returning to the previous holding voltage. This test pulse constituted P1 and represents 100% available (non-inactivated) Nav1.x channels. The same cell was then depolarised for 8 s to a voltage corresponding to 7 mV more positive than V0.5inact in order to cause channel inactivation. Following a brief (2 ms) hyperpolarising voltage step to −120 mV (to reset the activation gate), cells were again subjected to a depolarising test pulse (P2) to −10 mV for 20 ms before returning to the holding potential. Each sequence was repeated 6×at 30 s intervals. Using this protocol, control P2 current amplitudes (representing the % channels available following 8 s inactivation) was ˜50% of control P1 current amplitude. 6 repetitions of this recording sequence were made in the control bath solution and then again 2 minutes after compound addition and thereafter at increasing compound concentrations. % inhibition was calculated by (1−(P2drug at repetition 6/P2control at repetition 6))*100. Data were either presented as % block by a single concentration of drug or an estimated eIC50 determined from 2-3 drug concentrations which was determined by fitting data with a sigmoidal dose response curve (variable slope) using GraphPad Prism software (Version 6.0).
All compounds were dissolved in DMSO to 20 mM initially. Subsequent dilutions in DMSO were made to achieve 200×final bath concentrations. DMSO compound stocks were finally diluted 1/200 in bath solution just prior to assay resulting in a final DMSO concentration of 0.5% which was not found to affect control current amplitude.
(In general: Patch clamp records ionic current or voltage across a cell membrane.)
As for `O=C(NCc1ccc(OCc2ccccc2F)cc1)c1cn2ccccc2n1` [Compound 25], the “hNav1.7 SIS (% inh)” value worked out at 71%.

The same assay, now with this note: HEK293, Assay Conc. 3 uM; inactivated state protocol, HEK cells, whole-cell Patchliner; read-out: hNav1.7 SIS (% inh).
In the case of `O=C(NCc1ccc(OCc2ccccc2F)cc1)c1csc(C(F)(F)F)n1` [Compound 23], the inhibition at 3 µM is 61%.

Staying with this assay, now noted: HEK293, Assay Conc. 10 uM; inactivated state protocol, HEK cells, whole-cell Patchliner; read-out: hNav1.7 SIS (% inh).
Regarding `COC[C@H](C)N(Cc1ccc(OCc2ccccc2F)cc1)C(=O)c1cn2ccccc2n1` [Compound 24], the inhibition at 10 µM turned out to be 63%. On the same count and under the same terms, with `O=C(NCc1ccc(OCc2ccccc2F)cc1)c1cccn2ncnc12` [Compound 14] the figure was 49%; with `O=C(NCc1ccc(OCc2ccccc2F)cc1)c1cccc2ncnn12` [Compound 13], 42%; with `O=C(NCc1ccc(OCc2ccccc2F)cc1)c1ccn2cncc2c1` [Compound 18], 50%.

As to `COc1ncc(C(=O)NCc2ccc(OCc3ccccc3F)cc2)cn1` [Compound 6], the inhibition at 10 µM worked out at 47%.

As to `O=C(NCc1ccc(OCc2ccccc2F)cn1)c1cccn2cnnc12` [Compound 20], the inhibition at 10 µM is 36%.

On to `O=C(NCc1ccc(OCc2ccccc2F)cc1)c1cccc2cncn12` [Compound 19], for which the inhibition at 10 µM was 35%. For `CC(C)(Oc1ccc(CNC(=O)c2cccn3cnnc23)cc1)c1ccccc1F` [Compound 7], the inhibition at 10 µM was 35%.

Turning to `O=C(NCc1ccc(OCc2ccccc2F)cc1)c1ccn2cnnc2c1` [Compound 10], the inhibition at 10 µM was 30%.

With `COc1ncccc1C(=O)NCc1ccc(OCc2ccccc2F)cc1` [Compound 17], the inhibition at 10 µM amounted to 32%. The same measure, in the same setting: with `O=C(NCc1ccc(OCc2ccccc2F)cc1)c1cn[nH]c1` [Compound 3] the figure was 34%; with `Cc1n[nH]c(C(=O)NCc2ccc(OCc3ccccc3F)cc2)n1` [Compound 8], 44%. For `O=C(NCc1ccc(OCc2ccccc2F)cc1)c1cc[nH]c(=O)c1` [Compound 11], the inhibition at 10 µM was found to be 34%.

As for `Cn1ccc(C(=O)NCc2ccc(OCc3ccccc3F)cc2)cc1=O` [Compound 12], the inhibition at 10 µM stood at 35%. Turning to `CN(Cc1ccc(OCc2ccccc2F)cc1)C(=O)c1csc(C(F)(F)F)n1` [Compound 4], the inhibition at 10 µM came to 36%.

Take `O=C(NCc1ccc(OCc2ccccc2F)cc1)c1cn2ccccc2n1` [Compound 53]: the inhibition at 10 µM worked out at 56%. The same measure, in the same setting: under `CN(Cc1ccc(OCc2ccccc2F)cc1)C(=O)c1cn2ccccc2n1` [Compound 27] stands 92%. The same measure, in the same setting: with `O=C(NCc1ccc(OCc2ccccc2F)cc1)c1nnc(C2CC2)o1` [Compound 9] the figure was 35%; with `O=C(NCc1ccc(OCc2ccccc2F)cc1)c1cscn1` [Compound 21], 52%. For `O=C(NCc1ccc(OCc2ccccc2F)cc1)c1ccc2cncn2c1` [Compound 46], the inhibition at 10 µM was 34%. `Cc1nc(C(=O)NCc2ccc(OCc3ccccc3F)cc2)cs1` [Compound 5]: the inhibition at 10 µM turned out to be 39%. `O=C(NCc1ccc(OCC2CCCC2)cc1)c1ccn2ccnc2c1` [Compound 52]: the inhibition at 10 µM turned out to be 45%.

With `O=C(NCc1ccc(OCc2ccccc2F)cc1)c1cc2cccn2cn1` [Compound 2], the inhibition at 10 µM was 48%. For the molecule `Cn1cccc(C(=O)NCc2ccc(OCc3ccccc3F)cc2)c1=O` [Compound 16], the inhibition at 10 µM was found to be 32%. The same measure, in the same setting: under `Cc1cnc(C(=O)NCc2ccc(OCc3ccccc3F)cc2)cn1` [Compound 22] stands 59%; under `O=C(NCc1ccc(OCc2ccccc2F)cc1)c1ccn2ncnc2c1` [Compound 15], 51%; under `O=C(NCc1ccc(OCc2ccccc2F)cc1)c1cccnc1` [Compound 1], 41%.

Still in this assay, the particulars now being: estimated eIC50 from 2-3 drug concentrations; inactivated state protocol.
Consider `COC[C@H](C)N(Cc1ccc(OCc2ccccc2F)cc1)C(=O)c1cn2ccccc2n1` [Compound 24], for which the IC50 is 7.2 µM.

For `O=C(NCc1ccc(OCc2ccccc2F)cc1)c1cnc2ccccn12` [Compound 37], the IC50 is 8.9 µM. In the case of `O=C(NCc1ccc(OCc2ccccc2F)cc1)c1nc(C(F)(F)F)cs1` [Compound 33], the IC50 was 7.5 µM. With `O=C(NCc1ccc(OCC2CCCCC2)cc1)c1ccn2ccnc2c1` [Compound 48], the concentration for half-maximal inhibition (IC50) was 5.7 µM. On to `Cc1csc(C(=O)NCc2ccc(OCc3ccccc3F)cc2)n1` [Compound 34], for which the IC50 is 9.4 µM. The same measure, in the same setting: under `O=C(NCc1ccc(OCC2CCCC2)cc1)c1cccn2cnnc12` [Compound 51] stands 0.98 µM; under `O=C(NCc1ccc(OCc2ccccc2F)cc1)c1cccc2ccnn12` [Compound 38], 3.2 µM. Regarding `Cc1cccc(C(=O)NCc2ccc(OCc3ccccc3F)cc2)n1` [Compound 36], the IC50 was 5.6 µM. The same measure, in the same setting: under `CC(C)(Oc1ccc(CNC(=O)c2cccn3ccnc23)cc1)c1ccccc1F` [Compound 28] stands 2.6 µM. Take `O=C(NCc1ccc(OCC2CCCCC2)cc1)c1cn2ccccc2n1` [Compound 50]: the IC50 was 3.2 µM. Same read-out and setting: with `O=C(NCc1ccc(OCc2ccccc2F)cc1)c1cccn2cnnc12` [Compound 39] the figure was 4.1 µM; with `CC(C)c1cc(C(=O)NCc2ccc(OCc3ccccc3F)cc2)n[nH]1` [Compound 42], 6.2 µM.

For the molecule `Cn1cnc(C(=O)NCc2ccc(OCc3ccccc3F)cc2)n1` [Compound 32], the IC50 is 5.9 µM. Consider `O=C(NCc1ccc(OCc2ccccc2F)cc1)c1cn2ccccc2n1` [Compound 25], for which the IC50 is 5.7 µM. For the molecule `Cc1nc(C(=O)NCc2ccc(OCc3ccccc3F)cc2)cn1C` [Compound 43], the IC50 is 8.6 µM. On the same count and under the same terms, under `O=C(NCc1ccc(OCc2ccccc2F)cc1)c1ccn2ccnc2c1` [Compound 26] stands 5.2 µM; under `CN(Cc1ccc(OCc2ccccc2F)cc1)C(=O)c1cn2ccccc2n1` [Compound 27], 4.3 µM. For `Cc1nc(C(=O)NCc2ccc(OCc3ccccc3F)cc2)sc1C` [Compound 35], the IC50 is 5.5 µM.

`O=C(NCc1ccc(OCc2ccccc2F)cc1)c1cccn2nnnc12` [Compound 30]: the IC50 was 7.5 µM. For the molecule `O=C(NCc1ccc(OCc2ccccc2F)cc1)c1nccn2ccnc12` [Compound 31], the IC50 is 3.2 µM. With `COC[C@@H](C)N(Cc1ccc(OCc2ccccc2F)cc1)C(=O)c1cn2ccccc2n1` [Compound 44], the IC50 was 6.3 µM. With `O=C(NCc1ccc(OCC2CCCCC2)cc1)c1ccc2cncn2c1` [Compound 47], the IC50 was 3.6 µM.

On to `O=C(NCc1ccc(OCC2CCCCC2)cc1)c1cccn2cnnc12` [Compound 49], for which the concentration for half-maximal inhibition (IC50) is 2.5 µM.

Consider `Cc1cc(C(=O)NCc2ccc(OCc3ccccc3F)cc2)n(C)n1` [Compound 41], for which the IC50 was 8.9 µM. As to `O=C(NCc1ccc(OCc2ccccc2F)cc1)c1csc(C(F)(F)F)n1` [Compound 23], the IC50 is 1.9 µM. Same read-out and setting: under `O=C(NCc1ccc(OCc2ccccc2F)cc1)c1cccn2cncc12` [Compound 45] stands 7.6 µM. The same measure, in the same setting: under `CC(C)(Oc1ccc(CNC(=O)c2ccn3ccnc3c2)cc1)c1ccccc1F` [Compound 29] stands 6.5 µM; under `O=C(NCc1ccc(OCc2ccccc2F)cc1)c1cccn2ccnc12` [Compound 40], 3.5 µM.

One may read the IC50 as the concentration needed to halve the response being measured.

These data come from patent US20240262825A1, “PAIN TREATING COMPOUNDS AND USES THEREOF” (BIONOMICS LIMITED, priority 2018, published 2024).
